We go through four compounds from patent US9243221B2, “Compositions and methods of functionally enhanced in vitro cell culture system” (HUREL CORPORATION, priority 2008, dated 2016).

SMILES strings stand for the structures. Read-outs that look alike come from different tables or passages of the source.

In data set [1] the test system is Cryopreserved human hepatocytes. Briefly: Long term accumulation of 4-OH midazolam in culture media of oxygenated hepatocyte co-cultures. It is filed as in vitro ADME. Conditions: in the presence and absence of rifampicin; FIG. 5B.
The test system is the same in data set [2]. On the procedure: Cryopreserved human hepatocytes are cultured with 3T3-J2 fibroblasts under serum free conditions. Following overnight incubation in high oxygen tension (95% O2, 5% CO2) the cells are exposed to one of the following drugs: antipyrine, buspirone, metoprolol, sildenafil, and timolol.

In the case of `Cc1ncc2n1-c1ccc(Cl)cc1C(c1ccccc1F)=NC2O` (stereo not shown) [4-OH midazolam], in data set [1], the “accumulation of 4-OH midazolam in the culture media” value was “can be detected over 30 hours of culture”.

As for `Cc1cc(=O)n(-c2ccccc2)n1C` [antipyrine], in data set [2] (cryopreserved human hepatocytes with 3T3-J2 fibroblasts, serum free, overnight 95% O2, 5% CO2, FIG. 5A), the clearance of drugs result was “slow clearing”.

`CCCc1nn(C)c2c(=O)[nH]c(-c3cc(S(=O)(=O)N4CCN(C)CC4)ccc3OCC)nc12` [sildenofil, sildenafil]: the clearance of drugs entry in data set [2] (human) is “slow clearing”. On the same count and under the same terms, the value for `CC(C)(C)NC[C@H](O)COc1nsnc1N1CCOCC1` [timolol] was “slow clearing”.
